Legend:
[1] = molecular target: T1, COX-2 (Ovis aries, UniProt P79208); experiment: Inhibition of the COX-2 enzymatic activity (PGE2 determined by EIA); assay type: biochemical, ewe; conditions: arachidonic acid 4 μM, mean±standard deviations of 4 determinations; for inhibition at 10 µM: 10^-5 M; for inhibition at 0.1 µM: 10^-7 M
T1 construct: purified enzyme from ewe placenta; from tissue; host or cells: ewe placenta
T1 sequence (P79208 17-603): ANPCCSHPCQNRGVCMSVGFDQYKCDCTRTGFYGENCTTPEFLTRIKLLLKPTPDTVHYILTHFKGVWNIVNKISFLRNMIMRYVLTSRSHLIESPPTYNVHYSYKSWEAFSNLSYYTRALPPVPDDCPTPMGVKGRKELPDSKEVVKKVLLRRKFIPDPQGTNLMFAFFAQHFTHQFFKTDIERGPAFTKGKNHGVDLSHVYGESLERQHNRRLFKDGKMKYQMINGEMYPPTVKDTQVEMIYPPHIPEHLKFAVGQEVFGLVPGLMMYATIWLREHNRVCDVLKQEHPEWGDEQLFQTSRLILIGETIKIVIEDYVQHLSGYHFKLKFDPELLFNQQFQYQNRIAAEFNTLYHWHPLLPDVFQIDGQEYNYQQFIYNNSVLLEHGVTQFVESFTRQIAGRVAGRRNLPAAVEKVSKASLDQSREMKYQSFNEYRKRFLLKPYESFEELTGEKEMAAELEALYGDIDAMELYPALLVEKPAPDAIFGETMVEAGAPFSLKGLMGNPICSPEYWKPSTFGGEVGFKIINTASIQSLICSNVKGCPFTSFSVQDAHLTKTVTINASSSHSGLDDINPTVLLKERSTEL
Protocol: (§1) Inhibition of the COX-1 and COX-2 enzymatic activities The molecule studied is preincubated for 10 minutes at 25° C. with 2 U of COX-1 (purified enzyme from ram seminal vesicles) or 1 U of COX-2 (purified enzyme from ewe placenta). Arachidonic acid (6 μM for COX-1, 4 μM for COX-2) is added to the reaction medium and incubation is carried out for 5 minutes at 25° C. When incubation has ended, the enzymatic reaction is stopped by the addition of 1N HCl and the PGE2 produced is determined by EIA. The results are expressed as the percentage inhibition of the COX-1 and COX-2 enzymatic activities and correspond to mean±standard deviations of the average of 4 determinations.

[2] = tested on: carrageenin edema; experiment: carrageenin edema test (anti-inflammatory activity); assay type: in vivo; conditions: rat, oral, 100 mg/kg, 3 hours, n=6 animals per dose
Protocol: (§2) The anti-inflammatory activity of the compounds of the Examples was evaluated by the carrageenin edema method and the analgesic activity was evaluated by the kaolin arthritis method.
Anti-inflammatory activity:
The anti-inflammatory activity is evaluated in the rat by the carrageenin edema test. The product is administered orally at a rate of 2.5 ml/100 g (n=6 animals per dose) 2 h 30 rain after oral hyperhydration (2.5 ml/100 g). One hour after administration of the product, the edema is induced by the plantar subcutaneous injection of 2% aqueous carrageenin solution. The percentage inhibition of the volume of the edema is calculated after 3 hours by measurement of the volume of the paw with a mercury plethysmograph.

[3] = tested on: kaolin arthritis; experiment: kaolin arthritis test (analgesic activity); assay type: in vivo; conditions: rat, oral, 100 mg/kg, 5 h 30 after administration, n=10 animals per dose
Protocol: as §2
The analgesic activity is evaluated in the rat by the kaolin arthritis test. Thirty minutes after the intra-articular administration of 10% aqueous kaolin suspension, the product is administered orally at a rate of 1 ml/100 g (n=10 animals per dose). The percentage inhibition of the animal's pain response (grading of the gait) is calculated 5 h 30 rain after administration of the product.

[4] = tested on: COX-1; experiment: Inhibition of the COX-1 enzymatic activity (PGE2 determined by EIA); assay type: biochemical, ram; conditions: 10^-5 M; arachidonic acid 6 μM; mean±standard deviations of 4 determinations
Protocol: as §1

inhibition at 10 µM [1] [%]	inhibition at 0.1 µM [1] [%]	SMILES	Anti-inflammatory activity % inhibition (of the volume of the edema) [2] [%]	Analgesic activity % inhibition (of the animal's pain response, grading of the gait) [3] [%]	% inhibition of the COX-1 activity [4] [%]
66 ± 4	21 ± 4	CS(=O)(=O)c1ccc(C(=C2CCCC2)c2ccc(F)cc2)cc1 [Example 3, 4-[(Cyclopentylidene)(4-fluorophenyl)methyl]methylsulfonylbenzene]	–	–	–
57 ± 3	–	CS(=O)(=O)c1ccc(C(=C2C=CC=C2)c2ccc(F)cc2)cc1 [Example 12, 4-[(Cyclopenta-2,4-dienylidene)(4-fluorophenyl)methyl]methyl-sulfonylbenzene]	–	–	–
65 ± 2	18 ± 8	CS(=O)(=O)c1ccc(C(=C2CCCC2)c2ccc(Cl)nc2)cc1 [Example 6, 2-Chloro-5-[(cyclopentylidene)(4-methylsulfonylphenyl)methyl]-pyridine]	45.8 ± 9.8	55.0 ± 15.7	0 ± 0

Reference: patent US5686460A, “Carbocyclic diarylmethylene derivatives, processes for their preparation and their uses in therapeutics” (Laboratoires UPSA, priority 1996, dated 1997)
